Measurements published in the CheMixHub ionic liquid set.

Assay: xn = mol fraction of the nth substance listed

CCCN + CC(C)(C)O + CCCCCC[n+]1ccn(C)c1.F[B-](F)(F)F
298.15 K, 101 kPa
Settings | viscosity [mPa·s]
x2 = 0.0474, x1 = 0.3489 | 46.28
x2 = 0.0483, x1 = 0.4517 | 28.58
x2 = 0.05, x1 = 0.0708 | 120.9
x2 = 0.05, x1 = 0.8998 | 0.723
x2 = 0.0508, x1 = 0.2562 | 66.1
x2 = 0.0508, x1 = 0.8482 | 1.318
x2 = 0.0525, x1 = 0.7484 | 3.959
x2 = 0.0529, x1 = 0.6504 | 8.74
x2 = 0.055, x1 = 0.5488 | 16.3
x2 = 0.0572, x1 = 0.1668 | 88.1
x2 = 0.1042, x1 = 0.1719 | 73.7
x2 = 0.1487, x1 = 0.0497 | 96.6
x2 = 0.1555, x1 = 0.1488 | 66.7
x2 = 0.247, x1 = 0.0423 | 72.1
x2 = 0.251, x1 = 0.3468 | 15.17
x2 = 0.3138, x1 = 0.0592 | 53
x2 = 0.3494, x1 = 0.5505 | 1.808
x2 = 0.3508, x1 = 0.5993 | 1.244
x2 = 0.3529, x1 = 0.349 | 7.072
x2 = 0.3545, x1 = 0.4468 | 2.923
x2 = 0.3596, x1 = 0.0184 | 53.2
x2 = 0.4492, x1 = 0.1454 | 18.61
x2 = 0.4496, x1 = 0.0492 | 32.35
x2 = 0.6483, x1 = 0.1509 | 7.984
x2 = 0.6496, x1 = 0.2508 | 4.06
x2 = 0.6511, x1 = 0.299 | 2.994
x2 = 0.6551, x1 = 0.0445 | 15.43
x2 = 0.7929, x1 = 0.1032 | 7.67
x2 = 0.8001, x1 = 0.15 | 5.198
x2 = 0.8965, x1 = 0.0518 | 7.226

CC(=O)[O-].CC[n+]1ccn(C)c1 + CCO
Settings | electrical conductivity [S/m] | viscosity [mPa·s]
278.15 K, 101 kPa, x2 = 0.201 | – | 264
278.15 K, 101 kPa, x2 = 0.9 | – | 3.396
288.15 K, 101 kPa, x2 = 0 | – | 284
288.15 K, 101 kPa, x2 = 0.1 | – | 206.6
288.15 K, 101 kPa, x2 = 0.8 | – | 5.15
293.15 K, 101.3 kPa, x2 = 0 | 0.243 | –
293.15 K, 101.3 kPa, x2 = 0.0733 | 0.247 | –
293.15 K, 101.3 kPa, x2 = 0.1229 | 0.269 | –
293.15 K, 101.3 kPa, x2 = 0.2965 | 0.433 | –
293.15 K, 101.3 kPa, x2 = 0.4286 | 0.63 | –
293.15 K, 101.3 kPa, x2 = 0.5373 | 0.991 | –
293.15 K, 101.3 kPa, x2 = 0.7309 | 1.447 | –
293.15 K, 101.3 kPa, x2 = 0.7625 | 1.539 | –
293.15 K, 101.3 kPa, x2 = 0.7754 | 1.615 | –
293.15 K, 101.3 kPa, x2 = 0.8081 | 1.329 | –
293.15 K, 101.3 kPa, x2 = 0.8897 | 0.71 | –
293.15 K, 101.3 kPa, x2 = 0.9163 | 0.505 | –
293.15 K, 101.3 kPa, x2 = 0.9299 | 0.404 | –
293.15 K, 101.3 kPa, x2 = 0.9383 | 0.335 | –
293.15 K, 101.3 kPa, x2 = 0.9494 | 0.252 | –
298.15 K, 101 kPa, x2 = 0.4002 | – | 31.8
298.15 K, 101 kPa, x2 = 0.5001 | – | 20.04
298.15 K, 101 kPa, x2 = 0.8666 | – | 2.67
308.15 K, 101 kPa, x2 = 0.2999 | – | 32.06
308.15 K, 101 kPa, x2 = 0.6 | – | 9.27
308.15 K, 101 kPa, x2 = 0.8 | – | 3.398
313.15 K, 101 kPa, x2 = 0.1059 | – | 43.5
313.15 K, 101 kPa, x2 = 0.2471 | – | 28.5
313.15 K, 101 kPa, x2 = 0.5572 | – | 9.24
313.15 K, 101 kPa, x2 = 0.7494 | – | 3.89
318.15 K, 101 kPa, x2 = 0.1 | – | 39.7
318.15 K, 101 kPa, x2 = 0.201 | – | 29.99
318.15 K, 101 kPa, x2 = 0.2999 | – | 22.19
318.15 K, 101 kPa, x2 = 0.4002 | – | 15.76
318.15 K, 101 kPa, x2 = 0.6 | – | 7.27
318.15 K, 101 kPa, x2 = 0.9 | – | 1.591
328.15 K, 101 kPa, x2 = 0 | – | 30.3
328.15 K, 101 kPa, x2 = 0.7 | – | 3.833
338.15 K, 101 kPa, x2 = 0 | – | 21.85
338.15 K, 101 kPa, x2 = 0.8 | – | 2.049
343.15 K, 101 kPa, x2 = 0.1059 | – | 14.96
343.15 K, 101 kPa, x2 = 0.3504 | – | 8.69
343.15 K, 101 kPa, x2 = 0.4165 | – | 7.31

CCCCn1cc[n+](CCOCCOCC[n+]2ccn(CCCC)c2)c1.O=S(=O)([N-]S(=O)(=O)C(F)(F)F)C(F)(F)F.O=S(=O)([N-]S(=O)(=O)C(F)(F)F)C(F)(F)F + CC[n+]1ccn(C)c1.N#C[N-]C#N + O=S(=O)([N-]S(=O)(=O)C(F)(F)F)C(F)(F)F.[Li+]
100 kPa, x1 = 0.1442, x2 = 0.7526
Settings | electrical conductivity [S/m]
298 K | 0.677
303 K | 0.795
313 K | 1.05
323 K | 1.39
333 K | 1.71
343 K | 2.08

CCCC[N+](C)(CCCC)CCCC.[Cl-] + NC(N)=NCCC[C@H](N)C(=O)O + O
313.15 K, 101.3 kPa
Settings | viscosity [mPa·s]
x2 = 0, x1 = 0.0007203 | 0.67
x2 = 0, x1 = 0.00144 | 0.7

CCCC[n+]1ccn(C)c1.N#C[S-] + [Cl-].[Li+] + CN1CCCC1=O
298.15 K, 101 kPa
Settings | viscosity [mPa·s]
x1 = 0.000959, x2 = 0.03815 | 2.65
x1 = 0.001063, x2 = 0.07221 | 3.61
x1 = 0.001192, x2 = 0.104 | 4.991
x1 = 0.002304, x2 = 0.07212 | 3.657
x1 = 0.002399, x2 = 0.03809 | 2.683
x1 = 0.00252, x2 = 0.1039 | 5.021
x1 = 0.003854, x2 = 0.03804 | 2.715
x1 = 0.003994, x2 = 0.072 | 3.706
x1 = 0.00415, x2 = 0.1037 | 5.048
x1 = 0.005535, x2 = 0.03797 | 2.75
x1 = 0.005737, x2 = 0.1036 | 5.082
x1 = 0.005932, x2 = 0.07186 | 3.734
x1 = 0.006974, x2 = 0.07178 | 3.765
x1 = 0.007127, x2 = 0.1034 | 5.104
x1 = 0.007392, x2 = 0.0379 | 2.777
x1 = 0.008668, x2 = 0.1032 | 5.141
x1 = 0.008714, x2 = 0.07165 | 3.796
x1 = 0.009327, x2 = 0.03783 | 2.805
x1 = 0.009861, x2 = 0.07157 | 3.834
x1 = 0.009986, x2 = 0.1031 | 5.166
x1 = 0.01105, x2 = 0.03776 | 2.846
x1 = 0.01164, x2 = 0.1029 | 5.198
x1 = 0.01191, x2 = 0.07142 | 3.877
x1 = 0.01372, x2 = 0.03766 | 2.869

CC[NH+](CC)CC.O=S(=O)([O-])O + CS(C)=O
101 kPa
Settings | viscosity [mPa·s]
298.15 K, x1 = 0.011 | 3.84
298.15 K, x2 = 0.0244 | 228
298.15 K, x2 = 0.199 | 178
298.15 K, x2 = 0.9539 | 9.02
303.15 K, x1 = 0.011 | 3.01
303.15 K, x2 = 0.653 | 40.58
308.15 K, x2 = 0.2473 | 97.6
308.15 K, x2 = 0.4004 | 74.6

CC(=O)[O-].CC[n+]1ccn(C)c1 + CN(CCO)CCO
101 kPa
Settings | electrical conductivity [S/m] | viscosity [mPa·s]
288.15 K, x1 = 0.2002 | 0.036 | 150.1
288.15 K, x1 = 0.4995 | 0.066 | 174
293.15 K, x1 = 0.4001 | 0.071 | 123.1
298.15 K, x1 = 0.4995 | 0.112 | 97.7
303.15 K, x1 = 0.2002 | 0.065 | 65.1
303.15 K, x1 = 0.5998 | 0.171 | 81.8
303.15 K, x1 = 1 | 0.358 | 102.4
308.15 K, x1 = 0.8999 | 0.384 | 73.4
313.15 K, x1 = 0.4995 | 0.229 | 48.5
313.15 K, x1 = 0.7003 | 0.343 | 52.3
313.15 K, x1 = 0.7998 | 0.401 | 54.1
318.15 K, x1 = 0.1002 | 0.051 | 29.4
318.15 K, x1 = 0.7003 | 0.426 | 42.4
318.15 K, x1 = 0.8999 | 0.598 | 46.3
318.15 K, x1 = 1 | 0.724 | 47.7
323.15 K, x1 = 0.1002 | 0.063 | 23.5
323.15 K, x1 = 1 | 0.883 | 39
328.15 K, x1 = 0.1002 | 0.075 | 18.9
328.15 K, x1 = 0.4995 | 0.414 | 26.5
328.15 K, x1 = 0.5998 | 0.519 | 27.6
333.15 K, x1 = 0.8999 | 1.06 | 25.7
333.15 K, x1 = 1 | 1.25 | 26.7
343.15 K, x1 = 0.4001 | 0.52 | 14.88
348.15 K, x1 = 0.4995 | 0.795 | 13.87
353.15 K, x1 = 0.2002 | 0.331 | 8.91
353.15 K, x1 = 0.5998 | 1.2 | 12.74
353.15 K, x1 = 0.7998 | 1.68 | –

[Cl-].[Na+] + CCCCCCCCCCCC[N+](C)(C)C.[Br-] + O
298.15 K, 101 kPa
Settings | electrical conductivity [S/m]
x2 = 0, x1 = 0.0001802 | 0.1161
x2 = 0, x1 = 0.001799 | 0.8806

CCCO + CCCC[n+]1ccn(C)c1.O=S(=O)([N-]S(=O)(=O)C(F)(F)F)C(F)(F)F
Settings | viscosity [mPa·s]
298 K, 100 kPa, x2 = 0 | 1.929

CC[n+]1ccn(C)c1C.O=S(=O)([N-]S(=O)(=O)C(F)(F)F)C(F)(F)F + CC1COC(=O)O1
101.3 kPa
Settings | viscosity [mPa·s]
303.15 K, x1 = 0.203 | 5.35
303.15 K, x1 = 0.5825 | 20.07
313.15 K, x1 = 0.7004 | 19.96
318.15 K, x1 = 0.3994 | 7.33
318.15 K, x1 = 0.5149 | 10.82
318.15 K, x1 = 0.8032 | 21.86
323.15 K, x1 = 0.1025 | 2.411
323.15 K, x1 = 0.5149 | 9.41
323.15 K, x1 = 0.7004 | 15.48
328.15 K, x1 = 0.203 | 3.199
328.15 K, x1 = 0.8032 | 16.86
333.15 K, x1 = 0.3994 | 5.29
338.15 K, x1 = 0.3078 | 3.726
343.15 K, x1 = 0.3994 | 4.376
343.15 K, x1 = 0.5825 | 6.93
343.15 K, x1 = 0.8903 | 13.67
348.15 K, x1 = 0.1025 | 1.651
348.15 K, x1 = 0.7004 | 8.13

CC(=O)[O-].CC[n+]1ccn(C)c1 + CS(C)=O
298.1 K, 100 kPa
Settings | electrical conductivity [S/m]
x1 = 0.108 | 0.94
x1 = 0.653 | 0.65

CCCC[n+]1ccn(C)c1.N#C[N-]C#N + O=S(=O)([O-])C(F)(F)F.[Li+]
101 kPa, x1 = 1
Settings | electrical conductivity [S/m]
288.15 K | 0.596
298.15 K | 0.925
333.15 K | 2.77

CCCCCCCCCCCn1cc[n+](C)c1.O=S(=O)([N-]S(=O)(=O)C(F)(F)F)C(F)(F)F + O
Settings | viscosity [mPa·s]
338.15 K, 100 kPa, x2 = 0.1567 | 20.54

CCCN + CCCCCC[n+]1ccn(C)c1.F[B-](F)(F)F
298.15 K, 101 kPa
Settings | viscosity [mPa·s]
x1 = 0.1525 | 110
x1 = 0.5052 | 29.08
x1 = 0.9012 | 1.672

CC[N+](CC)(CC)CC.[Cl-] + Oc1ccccc1
viscosity [mPa·s], 101 kPa
Settings | 303.15 K | 323.15 K
x1 = 0.2 | 34.1 | 14.34
x1 = 0.25 | 38.6 | –
